We go through ten molecules from patent US11241427B2, “Small molecule modulators of NR2F6 activity” (Regen Biopharma, Inc., priority 2015, dated 2022).

Each structure is given as a SMILES string.

The target of this assay is T1, NR2F6 (ligand binding domain, amino acids 163-404) (Homo sapiens, UniProt P10588).
T1 construct: HIS (N, cleaved yes); FLAG (N, cleaved yes); TEV site (N, cleaved yes); made in house; host or cells: E. coli BL21 (DE3)
T1 sequence (P10588 163-404): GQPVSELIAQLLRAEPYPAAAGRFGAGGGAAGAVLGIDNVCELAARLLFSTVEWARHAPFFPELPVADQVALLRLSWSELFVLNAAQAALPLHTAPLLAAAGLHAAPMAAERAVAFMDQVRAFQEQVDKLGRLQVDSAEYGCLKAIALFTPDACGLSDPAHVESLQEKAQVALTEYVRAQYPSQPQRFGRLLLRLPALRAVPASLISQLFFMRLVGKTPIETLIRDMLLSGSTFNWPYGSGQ
Briefly: Thermoshift analysis (TSA) of compound binding to NR2F6. The following applies: Table 1.1, 100 μM compound; for ΔTm at 100 µM / delta Tm: shift versus NR2F6 alone (Tm 48 °C); for ΔTm at 100 µM: read-out: delta Tm; for Tm: 0.5 mg/ml NR2F6, 1% DMSO, NR2F6 alone Tm 48 °C. As to the method: The binding interaction between target protein NR2F6 and 139 compounds selected from an in silico screen was assessed using thermoshift analysis (TSA). Thermoshift is a physical technique used to determine the melting temperature of a protein. The interaction of the ligand to the folded state of the protein shifts the melting temperature. In the experimental system used, the NR2F6 protein is mixed with the ligand and the fluorescent dye SYPRO Orange®. The fluorescence is monitored over temperature gradient between 20 and 95° C. with 0.5° C. increment. The dye binds to the hydrophobic regions of molten globules and denatured proteins resulting in an increase of fluorescence. A plot of the fluorescence is obtained and used to determine the melting temperature in absence and presence of ligand.
The ligand binding domain of NR2F6 (amino acids 163-404) was cloned for soluble expression in E. coli with an N-terminal HIS-FLAG-TEV-tag. Expression was performed in BL21 (DE3) cells. In brief, a 12L E. coli culture was induced with IPTG in logarithmic phase and further incubated over night at 18° C. Cells were harvested via centrifugation, washed with buffer and stored at […] until purification.
The purification procedure performed consists of HIS affinity chromatography, tag cleavage, negative affinity chromatography, size exclusion chromatography and ion exchange chromatography.
Thermoshift analysis was performed on 139 Compounds that were stored as powder in DMSO stocks. A reaction volume of 25 μl was used, with reaction temperatures being increased in 0.5 increments from 20-95° C. in 96 well, PCR plates (Hard-Shell®, HSP-9655). The control was NR2F6 protein alone in 1% DMSO. For performing the reaction, a reaction buffer comprising of the following was utilized: 20 mM HEPES pH 6.85, 150 mM NaCl, 10% Glycerin and 0.5 mM TCEP.
The following pipetting sequence was used: 1) Add appropriate volume of target enzyme in reaction buffer; 2) Add appropriate volume of dye SYPRO Orange® in reaction buffer; 3) Add inhibitor in 100% DMSO (1% final DMSO conc); 4) Measure fluorescence
Fluorescence was quantified using a CFX Connect™ Real-Time PCR Detection System (BioRad)
An increase in melting temperature is indicative for compound binding.

In the case of `CC(C)(Oc1ccc(CCNC(=O)c2ccc(Cl)cc2)cc1)C(=O)O` [Cpd 61, Bezafibrate], the ΔTm at 100 µM is 0 °C.

For the molecule `COc1ccc(CNc2ncnc3ccccc23)cc1` [Cpd 126], the Tm was found to be 47.5 °C and the “delta Tm” value is −0.5 °C.

For the molecule `CC(=O)c1ccc(N2CCN(C(=S)Nc3ccc(Oc4ccccc4)cc3)CC2)cc1` [Cpd 131], the Tm came to 47.5 °C and the “delta Tm” value was −0.5 °C.

Take `CC(C)=CCC/C(C)=C/CC/C(C)=C/CC/C(C)=C/CO` [Cpd 88, Geranylgeranoil]: the Tm amounted to 47.5 °C and the “delta Tm” value was −0.5 °C.

`COc1ccc(NS(=O)(=O)c2cccc(NC(=O)c3ccc(Cl)nc3)c2)cc1` [Cpd 116]: the Tm turned out to be 47.5 °C and the “delta Tm” value is −0.5 °C.

For `CC(C)c1onc(-c2c(Cl)cccc2Cl)c1COc1ccc(/C=C/c2cccc(C(=O)O)c2)c(Cl)c1` [Cpd 82, GW4064], the Tm stood at 35 °C and the “delta Tm” value was −13 °C.

Turning to `CC(=O)c1c(C)[nH]c(C(=O)COc2cc(C)ccc2C(C)C)c1C` [Cpd 125], the Tm turned out to be 47.5 °C and the “delta Tm” value is −0.5 °C.

`Cc1c(C)c2c(c(C)c1O)CCC(C)(COc1ccc(CC3SC(=O)NC3=O)cc1)O2` (stereo not drawn) [Cpd 79, Troglitazone]: the ΔTm at 100 µM worked out at 0 °C.

Consider `CC(=O)[C@H]1CC[C@H]2[C@@H]3CC=C4C[C@@H](O)CC[C@]4(C)[C@H]3CC[C@]12C` [Cpd 71, Pregnenoione], for which the Tm worked out at 48 °C and the “delta Tm” value is 0 °C.

With `Cc1cc(-n2c(C)cc(C(=O)CSc3ncnc4ccccc34)c2C)no1` [Cpd 122], the Tm is 47.5 °C and the “delta Tm” value was −0.5 °C.
